Consider 29 compounds from patent publication US10508077B2 (FORMA Therapeutics, Inc., priority 2015, dated 2019).

In assay [1] the target is T1, Recombinant N-terminal GST tag full-length human HDAC8 (Homo sapiens, UniProt Q9BY41).
T1 construct: Recombinant N-terminal GST tag full-length human HDAC8; purchased SignalChem H90-30G-1000; host or cells: Sf9 insect cells (baculovirus)
T1 sequence (Q9BY41 1-377): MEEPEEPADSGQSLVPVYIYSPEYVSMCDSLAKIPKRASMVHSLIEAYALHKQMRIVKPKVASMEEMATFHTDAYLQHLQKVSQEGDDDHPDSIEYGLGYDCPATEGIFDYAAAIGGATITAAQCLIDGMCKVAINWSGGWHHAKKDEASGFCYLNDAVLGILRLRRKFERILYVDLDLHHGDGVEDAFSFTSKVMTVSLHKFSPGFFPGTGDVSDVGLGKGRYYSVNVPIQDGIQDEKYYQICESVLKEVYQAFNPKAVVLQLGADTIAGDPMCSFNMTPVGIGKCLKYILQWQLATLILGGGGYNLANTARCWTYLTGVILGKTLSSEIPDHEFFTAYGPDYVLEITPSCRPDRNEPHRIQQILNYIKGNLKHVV
In words: HDAC8 probe binding assay, time resolved fluorescence (TRF). The conditions noted are these: fluorescein labeled pan-HDAC inhibitor probe, 16 hours incubation, compounds listed under IC50 range headings. The protocol: The HDAC8 probe binding assay was performed using a time resolved fluorescence (TRF) assay format. Recombinant N-terminal GST tag full-length human HDAC8 was expressed and purified from baculovirus in Sf9 insect cells (SignalChem, #H90-30G-1000), Each assay was performed in 1536 black well microplates (Corning, #3936) in a final volume of 4 μL in assay buffer containing 50 mM HEPES (pH 7.5), 50 mM KCl, 50 mM NaCl, 0.5 mM GSH (L-Glutathione reduced, Sigma #G4251), 0.03% BGG (0.22 μM filtered, Sigma, #G7516-25G), and 0.01% Triton X-100 (Sigma, #T9284-10L). 20 nL of 10-point, 3-fold serial dilution in DMSO was pre-dispensed into respective wells of 1536 assay plates for a final test concentration range of 25 μM to 1.3 nM respectively. The final concentration in the assay of HDAC8 and probe (a fluorescein labeled pan-HDAC inhibitor) was 2.5 nM and 1.5 nM respectively. 2 μL of 2× probe and 2× anti-GST Terbium (Cisbio, #61GSTXLB) was added to assay plates followed by 2 μL of 2× HDAC8. Plates were incubated for 16 hours at room temperature before time resolved fluorescence was read on the Envision (Excitation at 340 nm, and Emission at 485 nm and 535 nm, Perkin Elmer).
Data from HDAC8 Assays were reported as percent inhibition (inh) compared with control wells based on the following equation: % inh=1−((FLU−AveLow)/(AveHigh−AveLow)) where FLU=measured time resolved fluorescence. AveLow=average time resolved fluorescence of no enzyme control (n=32). AveHigh=average time resolved fluorescence of DMSO control (n=32). IC50 values were determined by curve fitting of the standard 4 parameter logistic fitting algorithm included in the Activity Base software package: IDBS XE Designer Model205. Data is fitted using the Levenburg Marquardt algorithm.

Assay [2] has as its target T2, Full length human recombinant HDAC8 protein (Homo sapiens, UniProt Q9BY41).
T2 construct: Full length human recombinant HDAC8 protein was expressed in baculoviral system; made in house
T2 sequence (Q9BY41 1-377): T1 sequence (Q9BY41 1-377)
As to the kind of experiment: In vitro histone deacetylase assay: enzymatic HDAC8 assay, electrophoretic mobility shift. In kind it is biochemical. The conditions noted are these: substrate RHKK(Ac)-NH2, 1 nM enzyme, compounds listed under IC50 range headings. Summed up: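 Readout was microfluidic mobility-shift separation of deacetylated product from fluorescent RHKK(Ac)-NH2 substrate (2 µM), after reaction with 1 nM recombinant full-length human HDAC8 at 25 °C, pH 7.5, stopped with SDS. Twelve 3-fold-spaced concentrations tested; product/sum ratios normalized to controls and fitted with a 4-parameter model for IC50.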

Each structure is given as a SMILES string. Some results are limits rather than exact numbers.

As a reminder, the IC50 is the concentration needed to halve the response being measured. With `CN(C(=O)c1cccc(C(F)(F)F)c1)c1ccccc1/C=C/C(=O)NO` [Example I-54, (E)-N-(2-(3-(hydroxyamino)-3-oxoprop-1-en-1-yl)phenyl)-N-methyl-3-(trifluoromethyl)benzamide], the IC50 is not above 1000 nM in assay [1] and less than 1000 nM in assay [2].
As to `O=C(/C=C/c1ccccc1NC(=O)c1ccc(C(F)(F)F)cc1)NO` [Example I-61, (E)-N-(2-(3-(hydroxyamino)-3-oxoprop-1-en-1-yl)phenyl)-4-(trifluoromethyl)benzamide], the results for the IC50 in assay [1] and in assay [2] were not above 1000 nM and less than 1000 nM, respectively.
The corresponding values for `O=C(/C=C/c1ccccc1NC(=O)c1ccc2[nH]ccc2c1)NO` [Example I-62, (E)-N-(2-(3-(hydroxyamino)-3-oxoprop-1-en-1-yl)phenyl)-1H-indole-5-carboxamide] are not above 1000 nM and less than 1000 nM.
The corresponding values for `O=C(/C=C/c1ccccc1NC(=O)C1CCc2ccccc2C1)NO` (stereo not shown) [Example I-65, (E)-N-(2-(3-(hydroxyamino)-3-oxoprop-1-en-1-yl)phenyl)-1,2,3,4-tetrahydronaphthalene-2-carboxamide] are not above 1000 nM and less than 1000 nM.
As to `Cc1ccc(CC(=O)Nc2ccccc2/C=C/C(=O)NO)cc1` [Example I-66, (E)-N-hydroxy-3-(2-(2-(p-tolyl)acetamido)phenyl)acrylamide], the IC50 in assay [1] was not above 1000 nM; in assay [2] it was less than 1000 nM.
As for `CC(C)CCC(=O)Nc1ccccc1/C=C/C(=O)NO` [Example I-67, (E)-N-(2-(3-(hydroxyamino)-3-oxoprop-1-en-1-yl)phenyl)-4-methylpentanamide], the values for the IC50 in assay [1] and in assay [2] were not above 1000 nM and less than 1000 nM, respectively.
The corresponding values for `O=C(/C=C/c1ccccc1NC(=O)CC1CCCC1)NO` [Example I-68, (E)-3-(2-(2-cyclopentylacetamido)phenyl)-N-hydroxyacrylamide] are not above 1000 nM and less than 1000 nM.
In the case of `CC(C)C(=O)Nc1ccccc1/C=C/C(=O)NO` [Example I-69, (E)-N-hydroxy-3-(2-isobutyramidophenyl)acrylamide], the IC50 is not above 1000 nM in assay [1] and less than 1000 nM in assay [2].
The corresponding values for `O=C(/C=C/c1ccccc1NC(=O)c1ccc(OC(F)F)cc1)NO` [Example I-70, (E)-4-(difluoromethxoy)-N-(2-(3-(hydroxyamino)-3-oxoprop-1-en-1-yl)phenyl)benzamide] are not above 1000 nM and less than 1000 nM.
The corresponding values for `O=C(/C=C/c1ccccc1NC(=O)c1ccccc1Oc1ccccc1)NO` [Example I-71, (E)-N-(2-(3-(hydroxyamino)-3-oxoprop-1-enyl)phenyl)-2-phenoxybenzamide] are not above 1000 nM and less than 1000 nM.
In the case of `O=C(/C=C/c1ccccc1NC(=O)c1ccc(-n2cccn2)cc1)NO` [Example I-72, (E)-N-(2-(3-(hydroxyamino)-3-oxoprop-1-en-1-yl)phenyl)-4-(1H-pyrazol-1-yl)benzamide], the IC50 in assay [1] was not above 1000 nM; in assay [2] it was less than 1000 nM.
The corresponding values for `O=C(/C=C/c1ccccc1NC(=O)[C@H]1C[C@H]1c1ccccc1)NO` [Example I-73, (1S,2R)-N-(2-((E)-3-(hydroxyamino)-3-oxoprop-1-en-1-yl)phenyl)-2-phenylcyclopropane-1-carboxamide] are not above 1000 nM and less than 1000 nM.
Take `O=C(/C=C/c1ccccc1NC(=O)c1csc(-c2cccnc2)n1)NO` [Example I-75, (E)-N-(2-(3-(hydroxyamino)-3-oxoprop-1-en-1-yl)phenyl)-2-(pyridin-3-yl)thiazole-4-carboxamide]: the values for the IC50 in assay [1] and in assay [2] were not above 1000 nM and less than 1000 nM, respectively.
The corresponding values for `O=C(/C=C/c1ccccc1NC(=O)c1cnc(-c2cccnc2)s1)NO` [Example I-76, (E)-N-(2-(3-(hydroxyamino)-3-oxoprop-1-en-1-yl)phenyl)-2-(pyridin-3-yl)thiazole-5-carboxamide] are not above 1000 nM and less than 1000 nM.
For `O=C(/C=C/c1ccccc1NC(=O)c1cc2ccccc2[nH]1)NO` [Example I-77], the 50% inhibitory concentration (IC50) in assay [1] is not above 1000 nM; in assay [2], less than 1000 nM.
The corresponding values for `CCn1c(C(=O)Nc2ccccc2/C=C/C(=O)NO)cc2ccccc21` [Example I-79, (E)-1-ethyl-N-(2-(3-(hydroxyamino)-3-oxoprop-1-en-1-yl)phenyl)-1H-indole-2-carboxamide] are not above 1000 nM and less than 1000 nM.
The corresponding values for `O=C(/C=C/c1ccccc1NC(=O)[C@H]1C[C@@H]1c1ccccc1)NO` [Example I-83, (1S,2S)-N-(2-((E)-3-(hydroxyamino)-3-oxoprop-1-en-1-yl)phenyl)-2-phenylcyclopropane-1-carboxamide] are not above 1000 nM and less than 1000 nM.
On to `O=C(/C=C/c1ccccc1NC(=O)C1CCC2(CC1)CC2)NO` [Example I-84, (E)-N-(2-(3-(hydroxyamino)-3-oxoprop-1-en-1-yl)phenyl)spiro[2.5]octane-6-carboxamide], for which the values for the IC50 in assay [1] and in assay [2] were not above 1000 nM and less than 1000 nM, respectively.
The corresponding values for `CS(=O)(=O)c1nc(C(=O)Nc2ccccc2/C=C/C(=O)NO)c2ccccn12` [Example I-85, (E)-N-(2-(3-(hydroxyamino)-3-oxoprop-1-en-1-yl)phenyl)-3-(methylsulfonyl)imidazo[1,5-a]pyridine-1-carboxamide] are not above 1000 nM and less than 1000 nM.
Take `O=C(/C=C/c1ccccc1NCc1ccccn1)NO` [Example I-89]: the half-maximal inhibitory concentration (IC50) in assay [1] was not above 1000 nM; in assay [2], less than 1000 nM.
The corresponding values for `O=C(/C=C/c1ccccc1NCc1nccs1)NO` [Example I-91, (E)-N-hydroxy-3-(2-((thiazol-2-ylmethyl)amino)phenyl)acrylamide] are not above 1000 nM and less than 1000 nM.
The corresponding values for `O=C(/C=C/c1ccccc1NCc1cccnc1)NO` [Example I-93] are not above 1000 nM and less than 1000 nM.
Consider `Cc1cc(CNc2ccccc2/C=C/C(=O)NO)n(C)n1` [Example I-94, (E)-3-(2-(((1,3-dimethyl-1H-pyrazol-5-yl)methyl)amino)phenyl)-N-hydroxyacrylamide], for which the figures for the concentration for half-maximal inhibition (IC50) in assay [1] and in assay [2] were not above 1000 nM and less than 1000 nM, respectively.
The corresponding values for `CS(=O)(=O)c1ccc(CNc2ccccc2/C=C/C(=O)NO)cc1` [Example I-95, (E)-N-hydroxy-3-(2-((4-(methylsulfonyl)benzyl)amino)phenyl)acrylamide] are not above 1000 nM and less than 1000 nM.
The corresponding values for `O=C(/C=C/c1ccccc1NCc1ccc(-c2nnn[nH]2)cc1)NO` [Example I-96, (E)-3-(2-((4-(1H-tetrazol-5-yl)benzyl)amino)phenyl)-N-hydroxyacrylamide] are not above 1000 nM and less than 1000 nM.
In the case of `O=C(/C=C/c1ccccc1NCc1cccc(N2CCOCC2)c1)NO` [Example I-97, (E)-N-hydroxy-3-(2-((3-morpholinobenzyl)amino)phenyl) acrylamide], the IC50 is not above 1000 nM in assay [1] and less than 1000 nM in assay [2].
The corresponding values for `O=C(/C=C/c1ccccc1NCc1ccnc(N2CCOCC2)c1)NO` [Example I-98, (E)-N-hydroxy-3-(2-(((2-morpholinopyridin-4-yl)methyl)amino)phenyl)acrylamide] are not above 1000 nM and less than 1000 nM.
The corresponding values for `CS(=O)(=O)c1cccc(CNc2ccccc2/C=C/C(=O)NO)c1` [Example I-100, (E)-N-hydroxy-3-(2-((3-(methylsulfonyl)benzyl)amino)phenyl)acrylamide] are not above 1000 nM and less than 1000 nM.
The corresponding values for `O=C(/C=C/c1ccccc1NCc1cccc(CN2CCOCC2)c1)NO` [Example I-101, (E)-N-hydroxy-3-(2-((3-(morpholinomethyl)benzyl)amino)phenyl)acrylamide] are not above 1000 nM and less than 1000 nM.
